This is an account of results in the kinase profiling compilation of Christmann-Franck et al. (2016).

In one assay the target is RPS6KA6 KD2 (human) (UniProt Q9UK32). The experiment in a line: KINOMEscan competition binding. The settings on record: compound 10.0 µM.
Assay [1] concerns the target PIM2 (human) (UniProt Q9P1W9). The experiment in a line: KINOMEscan competition binding. The conditions noted are these: compound 10.0 µM.
The target of the next assay is RPS6KA2 KD2 (human) (UniProt Q15349). The experiment in a line: KINOMEscan competition binding. The settings on record: compound 10.0 µM.
Another assay addresses STK17B (human) (UniProt O94768). The experiment in a line: KINOMEscan competition binding. The conditions noted are these: compound 10.0 µM.
In the next assay the target is RPS6KA1 KD2 (human) (UniProt Q15418). The experiment in a line: KINOMEscan competition binding. The conditions noted are these: compound 10.0 µM.
In assay [2] the target is PIM1 (human) (UniProt P11309). The experiment in a line: KINOMEscan competition binding. The settings on record: compound 10.0 µM.
The target in a further assay is STK24 (human) (UniProt Q9Y6E0). The experiment in a line: KINOMEscan competition binding. The settings on record: compound 10.0 µM.
A further assay has as its target PIM3 (human) (UniProt Q86V86). The experiment in a line: KINOMEscan competition binding. The settings on record: compound 10.0 µM.
Another assay deals with CDC42BPB (human) (UniProt Q9Y5S2). The experiment in a line: KINOMEscan competition binding. The settings on record: compound 10.0 µM.
The target in a further assay is MAPK8 (human) (UniProt P45983). The experiment in a line: KINOMEscan competition binding. The conditions noted are these: compound 10.0 µM.
A further assay deals with DDR1 (human) (UniProt Q08345). The experiment in a line: KINOMEscan competition binding. The settings on record: compound 10.0 µM.
The target of another assay is MKNK2 (human) (UniProt Q9HBH9). The experiment in a line: KINOMEscan competition binding. The conditions noted are these: compound 10.0 µM.
A further assay concerns the target CSNK2A2 (human) (UniProt P19784). The experiment in a line: KINOMEscan competition binding. The settings on record: compound 10.0 µM.
For another assay, the target named is CSNK2A1 (human) (UniProt P68400). The experiment in a line: KINOMEscan competition binding. The settings on record: compound 10.0 µM.
In a further assay the target is TLK1 (human) (UniProt Q9UKI8). The experiment in a line: KINOMEscan competition binding. The conditions noted are these: compound 10.0 µM.
Assay [3] addresses PIM2 (human) (UniProt Q9P1W9). The experiment in a line: SelectScreen, TR FRET.
Assay [4] addresses PIM1 (human) (UniProt P11309). The experiment in a line: SelectScreen, TR FRET. On the technique in general: Time-resolved FRET reads energy transfer from a long-lived donor to a nearby acceptor.
In a further assay the target is GAK (human) (UniProt O14976). The experiment in a line: KINOMEscan competition binding. The conditions noted are these: compound 10.0 µM.
The target of another assay is TAOK3 (human) (UniProt Q9H2K8). The experiment in a line: KINOMEscan competition binding. The settings on record: compound 10.0 µM.
Another assay addresses TAOK1 (human) (UniProt Q7L7X3). The experiment in a line: KINOMEscan competition binding. The conditions noted are these: compound 10.0 µM.
The target of a further assay is STK25 (human) (UniProt O00506). The experiment in a line: KINOMEscan competition binding. The settings on record: compound 10.0 µM.
The target in a further assay is TTK (human) (UniProt P33981). The experiment in a line: KINOMEscan competition binding. The settings on record: compound 10.0 µM.
The target of the next assay is MAPK9 (human) (UniProt P45984). The experiment in a line: KINOMEscan competition binding. The conditions noted are these: compound 10.0 µM.
The target in another assay is MAPK14 (human) (UniProt Q16539). The experiment in a line: KINOMEscan competition binding. The conditions noted are these: compound 10.0 µM.
A further assay deals with AAK1 (human) (UniProt Q2M2I8). The experiment in a line: KINOMEscan competition binding. The settings on record: compound 10.0 µM.
The next assay deals with TLK2 (human) (UniProt Q86UE8). The experiment in a line: KINOMEscan competition binding. The conditions noted are these: compound 10.0 µM.
The next assay has as its target MAPK15 (human) (UniProt Q8TD08). The experiment in a line: KINOMEscan competition binding. The settings on record: compound 10.0 µM.
The target in a further assay is ZAP70 (human) (UniProt P43403). The experiment in a line: KINOMEscan competition binding. The settings on record: compound 10.0 µM.
The next assay addresses CDK7 (human) (UniProt P50613). The experiment in a line: KINOMEscan competition binding. The settings on record: compound 10.0 µM.
The target in a further assay is STK17A (human) (UniProt Q9UEE5). The experiment in a line: KINOMEscan competition binding. The conditions noted are these: compound 10.0 µM.
For a further assay, the target named is EIF2AK2 (human) (UniProt P19525). The experiment in a line: KINOMEscan competition binding. The settings on record: compound 10.0 µM.
A further assay deals with CLK2 (human) (UniProt P49760). The experiment in a line: KINOMEscan competition binding. The settings on record: compound 10.0 µM.
In the next assay the target is PAK7 (human) (UniProt Q9P286). The experiment in a line: KINOMEscan competition binding. The settings on record: compound 10.0 µM.
A further assay concerns the target MAPK10 (human) (UniProt P53779). The experiment in a line: KINOMEscan competition binding. The settings on record: compound 10.0 µM.
The target in a further assay is MYLK4 (human) (UniProt Q86YV6). The experiment in a line: KINOMEscan competition binding. The settings on record: compound 10.0 µM.
The next assay deals with PLK4 (human) (UniProt O00444). The experiment in a line: KINOMEscan competition binding. The conditions noted are these: compound 10.0 µM.
Another assay addresses CDK16 (human) (UniProt Q00536). The experiment in a line: KINOMEscan competition binding. The conditions noted are these: compound 10.0 µM.
The next assay deals with MAP2K3 (human) (UniProt P46734). The experiment in a line: KINOMEscan competition binding. The settings on record: compound 10.0 µM.
In a further assay the target is PAK2 (human) (UniProt Q13177). The experiment in a line: KINOMEscan competition binding. The settings on record: compound 10.0 µM.
The next assay addresses HIPK1 (human) (UniProt Q86Z02). The experiment in a line: KINOMEscan competition binding. The conditions noted are these: compound 10.0 µM.

Molecules are shown by their SMILES.

PIM2 (human), sequence (Q9P1W9 whole entry, looked up): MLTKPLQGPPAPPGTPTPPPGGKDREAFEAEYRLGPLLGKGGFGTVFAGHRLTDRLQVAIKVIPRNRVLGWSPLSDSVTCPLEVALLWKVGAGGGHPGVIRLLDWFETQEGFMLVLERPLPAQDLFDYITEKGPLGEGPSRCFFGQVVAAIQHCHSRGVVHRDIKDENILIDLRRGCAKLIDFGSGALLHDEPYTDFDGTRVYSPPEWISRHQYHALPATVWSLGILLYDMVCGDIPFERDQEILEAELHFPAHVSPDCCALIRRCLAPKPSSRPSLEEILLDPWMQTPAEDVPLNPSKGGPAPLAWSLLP
PIM1 (human), sequence (P11309 whole entry, looked up): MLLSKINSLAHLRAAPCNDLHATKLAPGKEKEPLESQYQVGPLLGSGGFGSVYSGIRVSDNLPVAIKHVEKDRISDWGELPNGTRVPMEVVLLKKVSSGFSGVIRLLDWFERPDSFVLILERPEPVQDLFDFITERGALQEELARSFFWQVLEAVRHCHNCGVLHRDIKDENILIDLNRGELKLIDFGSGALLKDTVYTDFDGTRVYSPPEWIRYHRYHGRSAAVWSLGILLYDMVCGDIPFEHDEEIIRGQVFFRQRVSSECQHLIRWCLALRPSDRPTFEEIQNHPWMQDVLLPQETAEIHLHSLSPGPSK
MAPK8 (human), sequence (P45983 whole entry, looked up): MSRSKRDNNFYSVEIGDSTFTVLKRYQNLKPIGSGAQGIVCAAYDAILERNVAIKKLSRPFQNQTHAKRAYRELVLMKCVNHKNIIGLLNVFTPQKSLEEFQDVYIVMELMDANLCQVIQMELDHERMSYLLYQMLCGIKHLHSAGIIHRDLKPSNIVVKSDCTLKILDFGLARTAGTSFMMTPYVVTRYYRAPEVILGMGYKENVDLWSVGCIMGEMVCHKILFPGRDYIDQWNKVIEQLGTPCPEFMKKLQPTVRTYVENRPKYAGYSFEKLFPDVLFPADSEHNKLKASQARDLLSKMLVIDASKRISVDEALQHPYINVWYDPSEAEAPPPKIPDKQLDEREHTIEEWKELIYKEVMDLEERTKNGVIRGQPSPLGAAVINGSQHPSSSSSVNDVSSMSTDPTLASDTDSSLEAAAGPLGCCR
RPS6KA1 KD2 (human), sequence (Q15418 whole entry, looked up): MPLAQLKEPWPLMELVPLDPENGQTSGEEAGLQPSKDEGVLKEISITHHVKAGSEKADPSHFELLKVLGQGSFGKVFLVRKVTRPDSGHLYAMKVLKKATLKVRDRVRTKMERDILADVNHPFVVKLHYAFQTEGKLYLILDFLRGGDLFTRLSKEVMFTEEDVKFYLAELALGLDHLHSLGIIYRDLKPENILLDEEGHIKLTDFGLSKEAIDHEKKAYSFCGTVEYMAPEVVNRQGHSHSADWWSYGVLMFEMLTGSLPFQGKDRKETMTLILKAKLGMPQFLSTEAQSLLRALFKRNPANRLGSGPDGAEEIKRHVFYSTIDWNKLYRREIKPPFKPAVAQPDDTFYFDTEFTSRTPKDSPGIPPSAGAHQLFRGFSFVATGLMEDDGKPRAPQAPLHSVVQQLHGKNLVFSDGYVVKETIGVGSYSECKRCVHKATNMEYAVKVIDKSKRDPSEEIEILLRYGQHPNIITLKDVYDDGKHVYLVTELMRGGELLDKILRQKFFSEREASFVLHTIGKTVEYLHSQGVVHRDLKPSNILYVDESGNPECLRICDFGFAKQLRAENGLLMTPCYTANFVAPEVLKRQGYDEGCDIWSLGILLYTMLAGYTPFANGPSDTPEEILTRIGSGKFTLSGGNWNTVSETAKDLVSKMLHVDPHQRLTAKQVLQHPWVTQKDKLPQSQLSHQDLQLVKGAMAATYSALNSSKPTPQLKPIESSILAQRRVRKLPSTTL
RPS6KA2 KD2 (human), sequence (Q15349 whole entry, looked up): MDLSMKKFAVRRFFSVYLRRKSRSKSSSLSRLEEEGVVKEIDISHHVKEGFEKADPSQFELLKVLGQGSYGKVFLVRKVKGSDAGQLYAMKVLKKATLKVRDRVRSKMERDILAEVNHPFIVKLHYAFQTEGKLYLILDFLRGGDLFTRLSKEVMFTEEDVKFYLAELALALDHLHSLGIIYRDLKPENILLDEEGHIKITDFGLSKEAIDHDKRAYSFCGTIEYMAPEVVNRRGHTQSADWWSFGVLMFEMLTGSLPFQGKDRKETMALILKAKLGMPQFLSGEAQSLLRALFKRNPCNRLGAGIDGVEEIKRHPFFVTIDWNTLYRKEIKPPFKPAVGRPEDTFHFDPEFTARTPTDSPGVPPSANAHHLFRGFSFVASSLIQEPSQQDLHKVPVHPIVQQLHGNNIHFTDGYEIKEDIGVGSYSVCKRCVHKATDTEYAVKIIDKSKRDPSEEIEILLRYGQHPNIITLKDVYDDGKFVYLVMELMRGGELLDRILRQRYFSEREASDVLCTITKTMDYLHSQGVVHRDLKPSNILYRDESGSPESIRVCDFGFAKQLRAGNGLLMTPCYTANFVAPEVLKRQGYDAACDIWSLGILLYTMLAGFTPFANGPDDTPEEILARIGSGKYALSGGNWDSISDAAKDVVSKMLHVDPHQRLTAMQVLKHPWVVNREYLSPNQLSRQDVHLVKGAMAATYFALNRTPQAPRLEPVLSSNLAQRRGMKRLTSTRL
RPS6KA6 KD2 (human), sequence (Q9UK32 whole entry, looked up): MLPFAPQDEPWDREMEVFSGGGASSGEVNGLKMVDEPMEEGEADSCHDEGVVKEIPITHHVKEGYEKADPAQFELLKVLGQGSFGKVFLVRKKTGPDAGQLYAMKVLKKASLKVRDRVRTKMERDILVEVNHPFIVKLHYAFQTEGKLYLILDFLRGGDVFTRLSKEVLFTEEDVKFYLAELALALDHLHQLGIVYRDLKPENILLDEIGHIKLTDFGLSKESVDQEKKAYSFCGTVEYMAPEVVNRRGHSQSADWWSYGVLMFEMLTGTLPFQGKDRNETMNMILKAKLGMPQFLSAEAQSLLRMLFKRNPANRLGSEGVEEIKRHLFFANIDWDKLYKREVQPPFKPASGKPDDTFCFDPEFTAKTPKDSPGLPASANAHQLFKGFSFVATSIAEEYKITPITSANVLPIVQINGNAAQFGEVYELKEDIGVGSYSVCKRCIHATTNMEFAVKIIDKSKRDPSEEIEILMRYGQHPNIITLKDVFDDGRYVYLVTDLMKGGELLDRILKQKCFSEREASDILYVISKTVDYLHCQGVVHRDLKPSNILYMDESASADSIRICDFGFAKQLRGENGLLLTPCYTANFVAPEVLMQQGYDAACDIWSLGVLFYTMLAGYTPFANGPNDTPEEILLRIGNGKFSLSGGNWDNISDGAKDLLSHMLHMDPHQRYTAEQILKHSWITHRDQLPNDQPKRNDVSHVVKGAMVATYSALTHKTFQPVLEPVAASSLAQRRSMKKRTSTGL
EIF2AK2 (human), sequence (P19525 whole entry, looked up): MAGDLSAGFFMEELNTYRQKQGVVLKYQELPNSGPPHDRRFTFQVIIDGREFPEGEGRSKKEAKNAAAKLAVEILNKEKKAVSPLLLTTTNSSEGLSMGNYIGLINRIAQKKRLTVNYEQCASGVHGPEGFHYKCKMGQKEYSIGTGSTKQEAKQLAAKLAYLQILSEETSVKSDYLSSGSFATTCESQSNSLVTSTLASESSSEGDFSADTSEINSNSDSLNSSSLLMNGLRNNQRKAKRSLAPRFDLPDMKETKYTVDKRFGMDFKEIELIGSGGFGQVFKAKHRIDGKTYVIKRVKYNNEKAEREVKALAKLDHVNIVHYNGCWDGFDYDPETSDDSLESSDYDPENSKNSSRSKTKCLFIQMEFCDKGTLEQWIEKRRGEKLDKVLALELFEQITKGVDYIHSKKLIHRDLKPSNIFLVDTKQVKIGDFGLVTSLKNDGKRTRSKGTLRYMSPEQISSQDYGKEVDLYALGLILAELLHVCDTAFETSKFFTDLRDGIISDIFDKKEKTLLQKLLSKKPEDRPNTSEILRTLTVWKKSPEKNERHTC
PAK7 (human), sequence (Q9P286 whole entry, looked up): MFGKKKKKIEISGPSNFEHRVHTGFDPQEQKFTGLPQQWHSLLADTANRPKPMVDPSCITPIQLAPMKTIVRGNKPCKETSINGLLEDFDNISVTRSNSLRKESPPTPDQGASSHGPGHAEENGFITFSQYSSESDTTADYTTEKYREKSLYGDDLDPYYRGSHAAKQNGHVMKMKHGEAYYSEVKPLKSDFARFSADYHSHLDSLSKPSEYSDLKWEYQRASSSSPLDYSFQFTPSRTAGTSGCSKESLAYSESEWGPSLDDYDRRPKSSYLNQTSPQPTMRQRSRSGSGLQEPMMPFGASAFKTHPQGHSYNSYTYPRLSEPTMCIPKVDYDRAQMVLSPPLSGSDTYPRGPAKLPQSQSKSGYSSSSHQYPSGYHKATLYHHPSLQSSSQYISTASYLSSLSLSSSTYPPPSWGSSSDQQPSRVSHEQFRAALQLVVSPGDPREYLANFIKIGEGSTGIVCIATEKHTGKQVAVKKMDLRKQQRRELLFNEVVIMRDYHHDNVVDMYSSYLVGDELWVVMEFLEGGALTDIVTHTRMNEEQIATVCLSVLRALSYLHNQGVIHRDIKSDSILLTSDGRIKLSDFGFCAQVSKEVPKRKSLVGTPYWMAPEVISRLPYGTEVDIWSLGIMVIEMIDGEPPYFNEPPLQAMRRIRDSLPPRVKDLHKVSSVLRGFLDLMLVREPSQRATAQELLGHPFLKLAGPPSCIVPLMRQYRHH

The IC50 is the point on the concentration scale where inhibition reaches its midpoint. A higher IC50 goes with weaker potency. On to `O=C1NC(=O)/C(=C/c2ccc(-c3ccc4c(C(=O)Nc5cccc(C(F)(F)F)c5)cccc4c3)o2)S1`, for which the kinase still bound, per cent of control came out at 25% at RPS6KA6 KD2 (human); 0.75% at PIM2 (human) [1]; 31% on RPS6KA2 KD2 (human); 7.4% at STK17B (human); 23% on RPS6KA1 KD2 (human); 14% at PIM1 (human) [2]. Moreover, the kinase still bound, per cent of control on STK24 (human) turned out to be 29%; on PIM3 (human), 11%; on CDC42BPB (human) it was 28%; on MAPK8 (human) it was 30%; at DDR1 (human) it was 21%; at MKNK2 (human), 34%. The kinase still bound, per cent of control was determined as 33% at CSNK2A2 (human), 33% on CSNK2A1 (human) and 24% on TLK1 (human). Besides, the results for the IC50 at PIM2 (human) [3] and at PIM1 (human) [4] were 2.91 µM and 9.02 µM, respectively.

With `CSC1=NC(=O)/C(=C/c2ccc(-c3ccc(S(N)(=O)=O)cc3)o2)S1`, the kinase still bound, per cent of control at RPS6KA6 KD2 (human) stood at 18%; on GAK (human), 6.7%; on TAOK3 (human), 24%; at PIM2 (human) [1], 3%; on RPS6KA2 KD2 (human) it was 5.3%; on TAOK1 (human), 3.6%. The kinase still bound, per cent of control at STK25 (human) came out at 32%; at TTK (human), 16%; at RPS6KA1 KD2 (human) it was 12%; at MAPK9 (human), 6%; at PIM1 (human) [2], 1.6%; on MAPK14 (human), 19%. In addition, the kinase still bound, per cent of control on AAK1 (human) was found to be 14%; on PIM3 (human), 1.8%; at TLK2 (human) it was 28%; at MAPK8 (human), 31%; on MAPK15 (human), 29%; at ZAP70 (human) it was 32%. Besides, the kinase still bound, per cent of control at CDK7 (human) was 1.4%; on STK17A (human), 2.5%; at EIF2AK2 (human) it was 17%; at CLK2 (human), 9.8%; at PAK7 (human), 28%; at MAPK10 (human), 22%. The kinase still bound, per cent of control on MYLK4 (human) was 19%; at PLK4 (human), 0.05%; on CDK16 (human) it was 0.1%; on MAP2K3 (human), 14%; on PAK2 (human), 34%; at HIPK1 (human) it was 6.5%.
